This assay can be described thus: Inhibition of Influenza A virus (A/Puerto Rico/8/34(H1N1)) PA endonuclease infected in MDCK cells assessed as reduction in virus titer treated with cells for 1 hr prior to viral infection for 1 hr followed by compound washout and subsequent compound addition measured after 48 hrs by hemagglutination test.

Broadly, the IC50 is the concentration that gives 50% inhibition. For the molecule `c1cncc(N2CCN=C2c2ccc(C3=NCCN3c3cccnc3)cc2)c1`, the IC50 was 68 µM.
In the case of `COc1ccc(N2CCN=C2c2ccc(C3=NCCN3)cc2)cc1`, the IC50 was 44 µM.
The value for `Fc1ccc(N2CCN=C2c2ccc(C3=NCCN3)cc2)cc1` was 65 µM; that for `c1ccc(N2CCN=C2c2ccc(C3=NCCN3)cc2)cc1` was 30 µM.
Next, `c1ccc(N2CCN=C2c2ccc(C3=NCCN3c3ccccn3)cc2)nc1`: 35 µM; `Clc1ccc(N2CCN=C2c2ccc(C3=NCCN3c3ccc(Cl)cc3)cc2)cc1`: 5 µM.
Turning to `COc1ccc(N2CCN=C2c2ccc(C3=NCCN3c3ccc(OC)cc3)cc2)cc1`, the IC50 was found to be 16 µM.
The value for `c1ccc(N2CCN=C2c2ccc(C3=NCCN3c3ccccc3)cc2)cc1` was 77 µM; that for `c1cnc(N2CCN=C2c2ccc(C3=NCCN3c3cnccn3)cc2)cn1` was above 809 µM; that for `Fc1ccc(N2CCN=C2c2ccc(C3=NCCN3c3ccc(F)cc3)cc2)cc1` was 12 µM.
Next, `FC(F)(F)c1ccc(N2CCN=C2c2ccc(C3=NCCN3c3ccc(C(F)(F)F)cn3)cc2)nc1`: 103 µM; `C[C@@H](N)C12CC3CC(CC(C3)C1)C2` [(alpha-methyl-1-adamantyl)methylamine]: 11 µM.
